target: T1, His-hMAGL (recombinant polyhistidine tagged human MAGL protein) (Homo sapiens, UniProt Q99685); assay: Measurement of MAGL inhibitory activity (arachidonic acid production from 2-arachidonylglycerol, RapidFire-mass spectrometry); type: biochemical; conditions: MAGL inhibitory rate at 10 μM test compound; 60 min preincubation with His-hMAGL, 2-arachidonylglycerol substrate, 10 min reaction at room temperature
T1 construct: made in house; host or cells: E. coli BL21(DE3)
T1 sequence (Q99685 1-303): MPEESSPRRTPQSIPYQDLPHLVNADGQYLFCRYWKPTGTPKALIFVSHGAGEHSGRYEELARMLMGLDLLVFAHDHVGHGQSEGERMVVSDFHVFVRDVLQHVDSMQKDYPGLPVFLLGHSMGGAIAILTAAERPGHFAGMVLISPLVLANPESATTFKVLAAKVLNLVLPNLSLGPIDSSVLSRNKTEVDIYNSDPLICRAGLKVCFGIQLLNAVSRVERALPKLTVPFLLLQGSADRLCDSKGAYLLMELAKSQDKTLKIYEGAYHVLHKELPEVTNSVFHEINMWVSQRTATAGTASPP
Summary of the method: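 Recombinant His-tagged human MAGL converted 2-arachidonylglycerol to arachidonic acid. Reactions received acetonitrile with 3 μM arachidonic acid-d8 as internal standard, and product was quantified by RapidFire SPE (C4) with negative-mode SRM mass spectrometry. Percent inhibition was calculated against compound-free and enzyme-free controls.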

Q: `O=C1COc2cc(F)c(C(=O)N3CCC(COc4cccc5ccnn45)CC3)cc2N1` [Example 275, 7-fluoro-6-((4-((pyrazolo[1,5-a]pyridin-7-yloxy)methyl)piperidin-1-yl)carbonyl)-2H-1,4-benzoxazin-3(4H)-one] was tested. Which inhibition at 10 µM did it give?
A: Its inhibition at 10 µM is 99%.

Q: With `Cc1ccnc(-c2ccc(OCC3CN(C(=O)c4cc5c(cc4F)OCC(=O)N5)C3)c(F)c2)c1` [Example 276] as the molecule, how does the inhibition at 10 µM read?
A: The inhibition at 10 µM was 97%.

Q: With `O=C1COc2cc(F)c(C(=O)N3CC(COc4ccc(C(F)(F)F)c(F)c4)C3)cc2N1` [Example 277, 7-fluoro-6-((3-((3-fluoro-4-(trifluoromethyl)phenoxy)methyl)azetidin-1-yl)carbonyl)-2H-1,4-benzoxazin-3(4H)-one] as the molecule, how does the inhibition at 10 µM read?
A: Its inhibition at 10 µM is 104%.

Q: Which inhibition at 10 µM does the source give for `O=C1COc2cc(F)c(C(=O)N3CC(COc4ccc(F)c(C(F)(F)F)c4)C3)cc2N1` [Example 278, 7-fluoro-6-((3-((4-fluoro-3-(trifluoromethyl)phenoxy)methyl)azetidin-1-yl)carbonyl)-2H-1,4-benzoxazin-3(4H)-one] here?
A: The inhibition at 10 µM was 103%.

Q: For `O=C1COc2cc(F)c(C(=O)N3CC(COc4cnc5c(c4)CCCO5)C3)cc2N1` [Example 279, 6-((3-((3,4-dihydro-2H-pyrano[2,3-b]pyridin-6-yloxy)methyl)azetidin-1-yl)carbonyl)-7-fluoro-2H-1,4-benzoxazin-3(4H)-one], which inhibition at 10 µM is on record?
A: The inhibition at 10 µM was 101%.

Q: With `O=C1COc2cc(F)c(C(=O)N3CC(COC4CCCCC4)C3)cc2N1` [Example 280, 6-((3-((cyclohexyloxy)methyl)azetidin-1-yl)carbonyl)-7-fluoro-2H-1,4-benzoxazin-3(4H)-one] as the molecule, how does the inhibition at 10 µM read?
A: The inhibition at 10 µM was 102%.

Q: For `O=C1COc2cc(F)c(C(=O)N3CC(COc4ccc(F)cc4Cl)C3)c(F)c2N1` [Example 281, 6-((3-((2-chloro-4-fluorophenoxy)methyl)azetidin-1-yl)carbonyl)-5,7-difluoro-2H-1,4-benzoxazin-3(4H)-one], which inhibition at 10 µM is on record?
A: The inhibition at 10 µM was 100%.

Q: With `O=C1COc2cc(F)c(C(=O)N3CC(COC4CCC(F)(F)CC4)C3)cc2N1` [Example 282, 6-((3-(((4,4-difluorocyclohexyl)oxy)methyl)azetidin-1-yl)carbonyl)-7-fluoro-2H-1,4-benzoxazin-3(4H)-one] as the molecule, how does the inhibition at 10 µM read?
A: The inhibition at 10 µM was 99%.

Q: How did the inhibition at 10 µM turn out when `CC1(COc2ccc(F)cc2Cl)CN(C(=O)c2cc3c(cc2F)OCC(=O)N3)C1` [Example 283, 6-((3-((2-chloro-4-fluorophenoxy)methyl)-3-methylazetidin-1-yl)carbonyl)-7-fluoro-2H-1,4-benzoxazin-3(4H)-one] was run?
A: The inhibition at 10 µM was 101%.

Q: How did the inhibition at 10 µM turn out when `O=C1COc2cc(F)c(C(=O)N3CCC(COc4ccc5c(c4)CCCC5)CC3)cc2N1` [Example 284, 7-fluoro-6-((4-((5,6,7,8-tetrahydronaphthalen-2-yloxy)methyl)piperidin-1-yl)carbonyl)-2H-1,4-benzoxazin-3(4H)-one] was run?
A: The inhibition at 10 µM was 96%.

Q: How did the inhibition at 10 µM turn out when `O=C1COc2cc(F)c(C(=O)N3CCC(COc4ccccc4)CC3)cc2N1` [Example 285, 7-fluoro-6-((4-(phenoxymethyl)piperidin-1-yl)carbonyl)-2H-1,4-benzoxazin-3(4H)-one] was run?
A: Its inhibition at 10 µM is 98%.

Q: With `O=C1COc2cc(F)c(C(=O)N3CC(COc4ccc5c(c4Br)CCCC5)C3)cc2N1` [Example 286, 6-((3-(((1-bromo,-5,6,7,8-tetrahydronaphthalen-2-yl)oxy)methyl)azetidin-1-yl)carbonyl)-7-fluoro-2H-1,4-benzoxazin-3(4H)-one] as the molecule, how does the inhibition at 10 µM read?
A: The inhibition at 10 µM was 98%.

Q: How did the inhibition at 10 µM turn out when `Cc1cc(OCC2CN(C(=O)c3cc4c(cc3F)OCC(=O)N4)C2)ccc1F` [Example 287, 7-fluoro-6-((3-((4-fluoro-3-methylphenoxy)methyl)azetidin-1-yl)carbonyl)-2H-1,4-benzoxazin-3(4H)-one] was run?
A: Its inhibition at 10 µM is 100%.

Q: How did the inhibition at 10 µM turn out when `O=C1COc2cc(F)c(C(=O)N3CC(COc4ccc(C(F)F)cc4F)C3)cc2N1` [Example 288, 6-((3-((4-(difluoromethyl)-2-fluorophenoxy)methyl)azetidin-1-yl)carbonyl)-7-fluoro-2H-1,4-benzoxazin-3(4H)-one] was run?
A: The inhibition at 10 µM was 101%.

Q: Which inhibition at 10 µM does the source give for `O=C1COc2cc(F)c(C(=O)N3CC(COc4ccc(-c5cccc(F)n5)cc4F)C3)cc2N1` [Example 289, 7-fluoro-6-((3-((2-fluoro-4-(6-fluoropyridin-2-yl)phenoxy)methyl)azetidin-1-yl)carbonyl)-2H-1,4-benzoxazin-3(4H)-one] here?
A: Its inhibition at 10 µM is 88%.

Q: With `Cc1nc(F)ccc1-c1ccc(OCC2CN(C(=O)c3cc4c(cc3F)OCC(=O)N4)C2)c(F)c1` [Example 290, 7-fluoro-6-((3-((2-fluoro-4-(6-fluoro-2-methylpyridin-3-yl)phenoxy)methyl)azetidin-1-yl)carbonyl)-2H-1,4-benzoxazin-3(4H)-one] as the molecule, how does the inhibition at 10 µM read?
A: The inhibition at 10 µM was 100%.

Q: `O=C1COc2cc(F)c(C(=O)N3CC(COc4ccc(N5CC(F)C5)cc4Cl)C3)cc2N1` [Example 291, 6-((3-((2-chloro-4-(3-fluoroazetidin-1-yl)phenoxy)methyl)azetidin-1-yl)carbonyl)-7-fluoro-2H-1,4-benzoxazin-3(4H)-one] was tested. Which inhibition at 10 µM did it give?
A: The inhibition at 10 µM was 100%.

Q: With `O=C1COc2cc(F)c(C(=O)N3CC(COc4ccc(N5CC(F)C5)cc4F)C3)cc2N1` [Example 292, 7-fluoro-6-((3-((2-fluoro-4-(3-fluoroazetidin-1-yl)phenoxy)methyl)azetidin-1-yl)carbonyl)-2H-1,4-benzoxazin-3(4H)-one] as the molecule, how does the inhibition at 10 µM read?
A: The inhibition at 10 µM was 100%.

Q: Which inhibition at 10 µM does the source give for `CC(Oc1ccc(F)cc1Cl)C1CCN(C(=O)c2cc3c(cc2F)OCC(=O)N3)CC1` (centres unmarked) [Example 293, 6-((4-(1-(2-chloro-4-fluorophenoxy)ethyl)piperidin-1-yl)carbonyl)-7-fluoro-2H-1,4-benzoxazin-3(4H)-one] here?
A: Its inhibition at 10 µM is 102%.

Q: How did the inhibition at 10 µM turn out when `CC(Oc1ccc(F)cc1F)C1CCN(C(=O)c2cc3c(cc2F)OCC(=O)N3)CC1` (centres unmarked) [Example 294, 6-((4-(1-(2,4-difluorophenoxy)ethyl)piperidin-1-yl)carbonyl)-7-fluoro-2H-1,4-benzoxazin-3(4H)-one] was run?
A: Its inhibition at 10 µM is 99%.

Q: Which inhibition at 10 µM does the source give for `CC(Oc1ccc(F)cc1Cl)C1CN(C(=O)c2cc3c(cc2F)OCC(=O)N3)C1` (centres unmarked) [Example 297, 6-((3-(1-(2-chloro-4-fluorophenoxy)ethyl)azetidin-1-yl)carbonyl)-7-fluoro-2H-1,4-benzoxazin-3(4H)-one] here?
A: Its inhibition at 10 µM is 99%.

Q: `CC(Oc1ccc(F)cc1F)C1CN(C(=O)c2cc3c(cc2F)OCC(=O)N3)C1` (centres unmarked) [Example 298, 6-((3-(1-(2,4-difluorophenoxy)ethyl)azetidin-1-yl)carbonyl)-7-fluoro-2H-1,4-benzoxazin-3(4H)-one] was tested. Which inhibition at 10 µM did it give?
A: The inhibition at 10 µM was 99%.

Q: `CC(Oc1ccc2cn[nH]c2c1)C1CN(C(=O)c2cc3c(cc2F)OCC(=O)N3)C1` (centres unmarked) [Example 299, 7-fluoro-6-((3-(1-(1H-indazol-6-yloxy)ethyl)azetidin-1-yl)carbonyl)-2H-1,4-benzoxazin-3(4H)-one] was tested. Which inhibition at 10 µM did it give?
A: The inhibition at 10 µM was 100%.

Q: Which inhibition at 10 µM does the source give for `CC(Oc1cccc(F)c1F)C1CN(C(=O)c2cc3c(cc2F)OCC(=O)N3)C1` (centres unmarked) [Example 302, 6-((3-(1-(2,3-difluorophenoxy)ethyl)azetidin-1-yl)carbonyl)-7-fluoro-2H-1,4-benzoxazin-3(4H)-one] here?
A: The inhibition at 10 µM was 102%.

Q: How did the inhibition at 10 µM turn out when `CC(Oc1cc(F)ccc1F)C1CN(C(=O)c2cc3c(cc2F)OCC(=O)N3)C1` (centres unmarked) [Example 303, 6-((3-(1-(2,5-difluorophenoxy)ethyl)azetidin-1-yl)carbonyl)-7-fluoro-2H-1,4-benzoxazin-3(4H)-one] was run?
A: Its inhibition at 10 µM is 103%.

Q: `CC(Oc1ccc(F)c(F)c1)C1CN(C(=O)c2cc3c(cc2F)OCC(=O)N3)C1` (centres unmarked) [Example 304, 6-((3-(1-(3,4-difluorophenoxy)ethyl)azetidin-1-yl)carbonyl)-7-fluoro-2H-1,4-benzoxazin-3(4H)-one] was tested. Which inhibition at 10 µM did it give?
A: Its inhibition at 10 µM is 99%.

Q: Which inhibition at 10 µM does the source give for `CC(Oc1cc(F)cc(F)c1)C1CN(C(=O)c2cc3c(cc2F)OCC(=O)N3)C1` (centres unmarked) [Example 305, 6-((3-(1-(3,5-difluorophenoxy)ethyl)azetidin-1-yl)carbonyl)-7-fluoro-2H-1,4-benzoxazin-3(4H)-one] here?
A: Its inhibition at 10 µM is 100%.

Q: With `CC(Oc1c(F)cccc1F)C1CN(C(=O)c2cc3c(cc2F)OCC(=O)N3)C1` (centres unmarked) [Example 306, 6-((3-(1-(2,6-difluorophenoxy)ethyl)azetidin-1-yl)carbonyl)-7-fluoro-2H-1,4-benzoxazin-3(4H)-one] as the molecule, how does the inhibition at 10 µM read?
A: The inhibition at 10 µM was 100%.

same assay, conditions: MAGL inhibitory rate at 10 μM test compound; 60 min preincubation with His-hMAGL, 2-arachidonylglycerol substrate, 10 min reaction at room temperature; 10 µM

Q: Which “% inhibition (10 μM)” value does the source give for `CC(Oc1ccc(F)cc1Cl)C1CCN(C(=O)c2cc3c(cc2F)OCC(=O)N3)CC1` (centres unmarked) [Example 295, 6-((4-(1-(2-chloro-4-fluorophenoxy)ethyl)piperidin-1-yl)carbonyl)-7-fluoro-2H-1,4-benzoxazin-3(4H)-one] here?
A: The value was 101%.

Q: `CC(Oc1ccc(F)cc1Cl)C1CCN(C(=O)c2cc3c(cc2F)OCC(=O)N3)CC1` (centres unmarked) [Example 296, 6-((4-(1-(2-chloro-4-fluorophenoxy)ethyl)piperidin-1-yl)carbonyl)-7-fluoro-2H-1,4-benzoxazin-3(4H)-one] was tested. Which “% inhibition (10 μM)” value did it give?
A: The value was 101%.

Q: With `CC(Oc1ccc(F)cc1F)C1CN(C(=O)c2cc3c(cc2F)OCC(=O)N3)C1` (centres unmarked) [Example 300, 6-((3-(1-(2,4-difluorophenoxy)ethyl)azetidin-1-yl)carbonyl)-7-fluoro-2H-1,4-benzoxazin-3(4H)-one] as the molecule, how does the “% inhibition (10 μM)” value read?
A: Its value is 102%.

Q: With `CC(Oc1ccc(F)cc1F)C1CN(C(=O)c2cc3c(cc2F)OCC(=O)N3)C1` (centres unmarked) [Example 301, 6-((3-(1-(2,4-difluorophenoxy)ethyl)azetidin-1-yl)carbonyl)-7-fluoro-2H-1,4-benzoxazin-3(4H)-one] as the molecule, how does the “% inhibition (10 μM)” value read?
A: The value was 99%.
